Measured values reported in patent US20230083885A1, “MODULATORS OF INTEGRATED STRESS RESPONSE PATHWAY” (Praxis Biotech LLC, priority 2021, published 2023).
Where two headings read alike, the source gives them in different places.

How the values were obtained:
[1] = system: Chinese hamster ovary (CHO) cells; assay: Protein synthesis assay (puromycin incorporation, Western blot); assay type: cell-based; conditions: Cricetulus griseus, read-out: % Protein synthesis relative to untreated (1 μM test compound)
Protocol: Chinese hamster ovary (CHO) cells were maintained at 37° C. and 5% CO2 in Dulbecco's Modified Eagle's Media (DMEM) supplemented with 10% fetal bovine serum, 2 mM L-glutamine, 100 U/ml penicillin, and 100 μg/ml streptomycin. After reaching 80% of confluence, cells were detached and seeded on 6 well plates in complete media, allowed to recover overnight and treated for 2 hours with 1 μM of the test compound (to assess protein synthesis levels in unstressed condition), or for 2 hours with 300 nM Tg in the presence of 1 μM of the test compound (to assess the recovery of protein synthesis in a stressed condition). Cells with Tg alone were used as controls.
After the 2 hours treatments, media were replaced by adding 10 μg/ml puromycin (Sigma Aldrich #P8833) in complete media for 30 min. Media were removed and cells were lysed with SDS-PAGE lysis buffer. Lysates were transferred to 1.5 ml tubes and sonicated for 3 min and total protein amount were quantified using BCA Protein Assay Kit (Pierce). Equal amount of protein (30 μg) was loaded on SDS-PAGE gels.
A HRP-conjugated secondary antibody (Rockland) was employed to detect immune-reactive bands using enhanced chemiluminescence (ECL Western Blotting Substrate, Pierce). Quantification of protein bands was done by densitometry using ImageJ software.
The percentage levels were normalized to the media alone condition, which correspond to 100% protein synthesis. […]

ATF4 = ATF4 expression inhibition assay (ATF4 5'UTR luciferase reporter, thapsigargin-stressed); assay type: cell-based; conditions: Homo sapiens, HEK-293T, read-out: ATF4 inhibition
Protocol: The ATF4 reporter was prepared by fusing the human full length 5′UTR of ATF4 (NCBI Accession No. BC022088.2) upstream of the firefly luciferase coding sequence lacking the initiator methionine. The fused sequence was cloned into pLenti-EF1a-C-Myc-DDK-IRES-Puro cloning vector (Origen #PS100085) using standard methods.
HEK293T cells carrying the ATF4 luciferase reporter were plated on 96-well plates (Nunc) at 10,000 cells per well. Cells were treated two days after seeding with 100 nM thapsigargin (Tg) (Sigma-Aldrich #T9033) in the presence of different concentrations of selected compounds ranging from 0.1 nM to 10 μM. Cells without treatment or cells treated with Tg alone were used as controls. Assay plates containing cells were incubated for 3 hours at 37° C.
Luciferase reactions were performed using Luciferase Assay System (Promega #E1501) as specified by the manufacturer. Luminescence was read with an integration time of 1 s and a gain of 110 using a Cytation-5 multi-mode microplate reader (BioTek).

[2] = unstressed CHO cells (without Tg), 1 μM test compound, 2 hours, media alone = 100%
[3] = HEK293T cells carrying ATF4 luciferase reporter, 100 nM thapsigargin, 3 hours

SMILES	activity at 1 µM [1, 2] [%]	IC50 (ATF4; [3]) [nM]	activity at 1 µM ([1]; CHO, 2 h) [%]	IC50 (ATF4; 3 h) [nM]
O=C(NC[C@H]1CC[C@H](c2nnc(-c3ccc(Cl)cc3)o2)CC1)c1cc2cc(Cl)ccc2o1 [Compound 2, trans-5-chloro-N-((4-(5-(4-chlorophenyl)-1,3,4-oxadiazol-2-yl)cyclohexyl)methyl)benzofuran-2-carboxamide]	136	100 to 1000	–	–
O=C(COc1ccc(Cl)c(F)c1)N[C@H]1CC[C@H](c2nnc(Cc3ccc(Cl)c(F)c3)o2)CC1 [Compound 244, N-(trans-4-(5-(4-chloro-3-fluorobenzyl)-1,3,4-oxadiazol-2-yl)cyclohexyl)-2-(4-chloro-3-fluorophenoxy)acetamide]	94	< 10	–	–
O=C(N[C@H]1CC[C@H](c2nnc(-c3ccc(Cl)cc3)o2)CC1)c1ccc2cc(Cl)ccc2n1 [Compound 5, trans-6-chloro-N-(4-(5-(4-chlorophenyl)-1,3,4-oxadiazol-2-yl)cyclohexyl)quinoline-2-carboxamide]	139	< 10	–	–
O=C(COc1ccc(Cl)c(F)c1)N[C@H]1CC[C@@H](c2cnn(-c3ccc(Cl)cc3)c2)CC1 [Compound 36, cis-2-(4-chloro-3-fluorophenoxy)-N-(4-(1-(4-chlorophenyl)-1H-pyrazol-4-yl)cyclohexyl)acetamide]	6.4	100 to 1000	–	–
O=C(N[C@H]1CC[C@H](c2nnc(Cc3ccc(Cl)cc3)o2)CC1)c1ccc2cc(Cl)ccc2n1 [Compound 239, 6-chloro-N-(trans-4-(5-(4-chlorobenzyl)-1,3,4-oxadiazol-2-yl)cyclohexyl)quinoline-2-carboxamide]	197	< 10	–	–
O=C(COc1ccc(Cl)c(F)c1)N[C@H]1CC[C@H](c2nnc(-c3ccc4cc(Cl)ccc4n3)o2)CC1 [Compound 14, trans-2-(4-chloro-3-fluorophenoxy)-N-(4-(5-(6-chloroquinolin-2-yl)-1,3,4-oxadiazol-2-yl)cyclohexyl)acetamide]	176	< 10	–	–
O=C(N[C@H]1CC[C@H](c2nnc(-c3ccc(Cl)cc3)o2)CC1)c1cnc(C(F)F)cn1 [Compound 15, trans-N-(4-(5-(4-chlorophenyl)-1,3,4-oxadiazol-2-yl)cyclohexyl)-5-(difluoromethyl)pyrazine-2-carboxamide]	103	10 to 100	–	–
O=C(COc1ccc(Cl)c(F)c1)NN1CCC(c2nnc(-c3ccc(Cl)cc3)o2)CC1 [Compound 35, 2-(4-chloro-3-fluorophenoxy)-N-(4-(5-(4-chlorophenyl)-1,3,4-oxadiazol-2-yl)piperidin-1-yl)acetamide]	51.6	< 10	–	–
O=C(Nc1ccc2cc(Cl)ccc2n1)[C@H]1CC[C@H](c2nnc([C@H]3CC[C@H](C(F)(F)F)CC3)o2)CC1 [Compound 30, trans-N-(6-chloroquinolin-2-yl)-4-(5-(trans-4-(trifluoromethyl)cyclohexyl)-1,3,4-oxadiazol-2-yl)cyclohexanecarboxamide]	16.7	100 to 1000	–	–
O=C(N[C@H]1CC[C@H](c2nnc(COc3ccc(Cl)cc3)o2)CC1)C1CNc2cc(Cl)ccc2O1 (stereo partly drawn) [Compound 11, trans-6-chloro-N-(4-(5-((4-chlorophenoxy)methyl)-1,3,4-oxadiazol-2-yl)cyclohexyl)-3,4-dihydro-2H-benzo[b][1,4]oxazine-2-carboxamide]	140	10 to 100	–	–
O=C(COc1ccc(Cl)cc1)NC[C@H]1CC[C@H](c2nnc(-c3ccc(Cl)cc3)o2)CC1 [Compound 4, trans-2-(4-chlorophenoxy)-N-((-4-(5-(4-chlorophenyl)-1,3,4-oxadiazol-2-yl)cyclohexyl)methyl)acetamide]	–	–	123	> 1000
O=C(COc1ccc(Cl)c(F)c1)N[C@H]1CC[C@H](c2nnc([C@H]3C[C@@H](C(F)(F)F)C3)o2)CC1 [Compound 243, trans-2-(4-chloro-3-fluorophenoxy)-N-(4-(5-(cis-3-(trifluoromethyl)cyclobutyl)-1,3,4-oxadiazol-2-yl)cyclohexyl)acetamide]	-39.1	10 to 100	–	–
